The values below come from article PMC11003925, “Antimicrobial activity and properties of de novo design of short synthetic lipopeptides” (Folia Microbiologica, 2024).

One data set relates to M. luteus DBM 3053. Type of data set: cell-based, Micrococcus luteus. The protocol:
(§1) A Bioscreen C automated microbiology growth curve analysis system (Growth Curves, Piscataway, NJ, USA) was used for the quantitative determination of antimicrobial activity (minimal inhibitory concentration, MIC) of PAL/LCA-peptides. Optical density was measured with a wide bandpass filter (wavelength range 420–580 nm) at regular intervals and temperatures. This assay was performed in a special microtiter plate (10 × 10 wells) that allowed the simultaneous testing of a large number of samples against several microorganisms. The total testing volume was 100 µL, obtained by mixing 10 µL of microbial culture with OD600 equal to 0.1 with growth medium and a solution of the tested compounds. The positive controls were vancomycin and tetracycline for Bacillus subtilis (100 µg/mL) for Gram-positive bacteria, kanamycin, and tetracycline for Acinetobacter baumannii (100 µg/mL) for Gram-negative bacteria, and clotrimazole or amphotericin (100 µg/mL) for fungi. The maximal concentration of tested lipoproteins was 1 mg/mL. A pure growth medium was used as the negative control. The measurement period was 25 h. The lowest concentration with a 100% inhibition effect for 24 h of incubation was chosen as the MIC. The antibacterial activity of each compound was expressed as the minimum inhibitory concentration MIC (MIC is the lowest concentration of the compound needed to inhibit the growth of bacterial cells) and IC50 (IC50 is the concentration of the compound needed to inhibit the growth of bacterial cells by 50%).

In the next data set the test system is C. tropicalis DBM 2166. Type of data set: cell-based, Candida tropicalis. The protocol: as §1
A further data set relates to E. coli DBM 3001. The data set is classed as cell-based. The procedure: as §1
The next data set concerns E. faecalis DBM 3075. Type of data set: cell-based. The protocol:
as §1

The next data set relates to Staph. aureus MRSA1. Type of data set: cell-based, Staphylococcus aureus. The protocol:
as §1

Another data set has as its system Staph. aureus DBM 3002. Type of data set: cell-based, Staphylococcus aureus. The protocol: as §1
A further data set relates to HEK293T. Briefly: Cytotoxicity assay (xCELLigence impedance). Type of data set: cell-based, human. The note with it: 24 h exposure. The protocol:
(§2) Experiments were carried out using an xCELLigence RTCA DP Instrument (Roche Diagnostics GmbH, Mannheim, Germany) which was placed into an incubator (37 °C and 5% CO2). Cell proliferation and cytotoxicity experiments were performed using modified 16-well plates (E-plate, Roche Diagnostics GmbH, Mannheim, Germany). Microelectrodes were attached to the bottom of the wells for the impedance-based detection of attachment, spreading, and proliferation of the cells (Stoddart [2011]). This system monitors cellular events in real time without the incorporation of labels by measuring electrical impedance across an interdigitated microelectrode integrated into the bottom of this special tissue culture plate. This impedance measurement improves upon conventional endpoint assays and provides quantitative information about the biological status of the cells, including cell number, adhesion, viability, and morphology. Ninety microliters of cultivation medium was used for the blank sample, and subsequently, 100 µL of HepG2 or HEK293T cell suspension (7 × 10^5 cells/mL) was added and placed into the incubator (37 °C, 95% humidity, 5% CO2). […] Chrysophsin-3 at a concentration of 100 µg/mL was used as a positive control and solvent (deionized water) as a negative control. Subsequent incubation was performed for at least an additional 24 h. The result of the measurement was viability curves. After the measurement, percentages of tissue culture growth inhibition were calculated for all the tested substances, as follows: %inhibition=(1-(ΔϕCIsample)/(ΔϕCIcontrol))·100
(§3) Δ∅CIsample … the difference between the first and last average CI (cell index) values of the tissue culture in the presence of the tested sample.
(§4) Δ∅CIcontrol … the difference between the first and last average CI values of the tissue culture itself.

Another data set deals with HepG2. Nature of the data set: Cytotoxicity assay (xCELLigence impedance). Type of data set: cell-based, human. The note with it: 24 h exposure. The procedure: as §2, §3, §4

Broadly, the MIC is the lowest concentration found to suppress growth. Higher therefore signals a need for much substance. What is called IC50 is the concentration that inhibits the measured activity by half. As usually defined, the % inhibition is the relative decrease from the control value, in per cent.

Converted amounts (≈) assume the structure as drawn. Residues, ends and D or L forms follow the SMILES beside them. *: point of attachment. Palmitoyl = CCCCCCCCCCCCCCCC(=O)*

Turning to `CCCCCCCCCCCCCCCC(=O)N[C@@H](CC(C)C)C(=O)N[C@H](C(=O)N[C@@H](CCCCN)C(=O)N[C@@H](CCCNC(=N)N)C(=O)N[C@@H](C)C(=O)NCC(N)=O)C(C)C` [SHP-1.2, PAL-LVKRAG-NH2] (Palmitoyl-LVKRAG-NH2), the MIC against M. luteus DBM 3053 (DBM 3053, 24 h) is 6.4 µg/mL (≈ 7.27 µM); in the data set with C. tropicalis DBM 2166 (DBM 2166, 24 h), 55.9 µg/mL (≈ 63.5 µM); against E. coli DBM 3001 (DBM 3001, 24 h) it was 78.9 µg/mL (≈ 89.6 µM); against E. faecalis DBM 3075 (DBM 3075, 24 h) it was 32.6 µg/mL (≈ 37 µM); against Staph. aureus MRSA1 (24 h) it was 7.8 µg/mL (≈ 8.86 µM); against Staph. aureus DBM 3002 (24 h), 27.7 µg/mL (≈ 31.5 µM). The IC50 in the data set with M. luteus DBM 3053 (DBM 3053, 25 h) came to 10.0 µg/mL (≈ 11.4 µM); in the data set with C. tropicalis DBM 2166 (DBM 2166, 25 h), 100.0 µg/mL (≈ 114 µM); in the data set on E. coli DBM 3001 (DBM 3001, 25 h) it was 100.0 µg/mL (≈ 114 µM); in the data set with E. faecalis DBM 3075 (DBM 3075, 25 h) it was 40 µg/mL (≈ 45.4 µM); with Staph. aureus MRSA1 (25 h), 12.5 µg/mL (≈ 14.2 µM); in the data set on Staph. aureus DBM 3002 (25 h), 50.0 µg/mL (≈ 56.8 µM). Also, the “% inhibition” value in the data set with HEK293T (c 50 µg/mL) was found to be 37.6 ± 5.6%; in the data set with HEK293T (c 100 µg/mL) it was 77.8 ± 11.7%; in the data set on HEK293T (c 200 µg/mL), 73.1 ± 11.0%; in the data set on HepG2 (c 50 µg/mL), 4.1 ± 0.6%; in the data set on HepG2 (c 100 µg/mL), 42.2 ± 6.3%; in the data set with HepG2 (c 200 µg/mL), 67.9 ± 10.2%.
